Assay results: patent US12426598B2, “Method for controlling herbicide-resistant weed” (SUMITOMO CHEMICAL COMPANY, LIMITED, priority 2019, dated 2025)

How the values were obtained:
[1] = tested on: palmer amaranth containing a Gly399Ala mutation in PPO2; assay: Foliar spray pot test in greenhouse, herbicidal effect; format: in vivo, Amaranthus palmeri; settings: 200 L/ha, rating 0 to 100
[2] = tested on: PPO inhibitor-resistant weeds; assay: Pot tests with crops in greenhouse (Examples 73 to 2304)
Description: On the same day, compound X is applied to the surface of soil so that the application rate of the compound X is 10, 20, 40, or 80 g/ha and the spray liquid amount is 200 L/ha. The plastic pot is then placed in a greenhouse, and at 7 days after the application, soybeans are seeded, and further at 14 days after seeding the soybeans, the effect on the weeds and crop injuries on the soybeans are investigated.
On the same day, compound X is applied to the surface of soil so that the application rate of the compound X is 10, 20, 40, or 80 g/ha and the spray liquid amount is 200 L/ha. The soybeans are then cultivated in a greenhouse, and at 21 days after seeding, the effect on the weeds and crop injuries on the soybeans are investigated.
The soybeans are then cultivated in a greenhouse, and at 21 days after seeding, compound X is applied to the stem and leaf so that the application rate of the compound X is 10, 20, 40, or 80 g/ha and the spray liquid amount is 200 L/ha. Further, the soybeans are cultivated in the greenhouse, and at 14 days after the application of compound X, the effect on the weeds and crop injuries on the soybeans are investigated.

[3] = tested on: waterhemp containing a Gly210 deficiency in PPO2; assay: Foliar spray pot test in greenhouse, herbicidal effect; format: in vivo, Amaranthus tuberculatus; settings: 200 L/ha, rating 0 to 100
[4] = Example 2305: plant height 10 cm, sprayed 5 g/ha, 14 days after
[5] = Example 2306: plant height 30 cm, sprayed 20 g/ha, 7 days after
[6] = Examples 289 to 432: as Examples 1 to 144, XtendiMax added at 1 pint/acre (560 g/ha)
[7] = Examples 433 to 576: as Examples 1 to 144, RoundupPowerMax 32 fluid ounce/acre and XtendiMax 1 pint/acre added

Compound | Herbicidal effect [1, 4] | Herbicidal effect [1, 5] | effect on the weeds [2, 6] | effect on the weeds [2, 7] | Herbicidal effect [3, 4] | Herbicidal effect [3, 5] | effect on the weeds ([2]; Examples 73 to 144: as Examples 1 to 72, compound Y instead of compound X)
CCOC(=O)COc1ccccc1Oc1nc(-n2c(=O)cc(C(F)(F)F)n(C)c2=O)c(F)cc1Cl [compound X] | 100 | 97 | effective control effect | effective control effect | 60 | 45 | 
CCOC(=O)COc1ncccc1Oc1nc(-n2c(=O)cc(C(F)(F)F)n(C)c2=O)c(F)cc1Cl [compound Y] |  |  | effective control effect | effective control effect |  |  | effective control effect
